Test system: mouse plasma stability, LC-MS/MS, 48 h
Test: qHTS Assay to Find Inhibitors of T. brucei phosphofructokinase: Mouse Plasma Stability Profiling
Conditions: at 2 µM; active compounds read high

Structure (SMILES): O=C(Cc1ccc(Cl)c(Cl)c1)Nc1ccc(S(=O)(=O)Nc2ccon2)cc1
- percent remaining: 100%

Reference: PubChem BioAssay AID624143 (National Center for Advancing Translational Sciences (NCATS), 2012)
